Experimental data as given in patent publication US6569638B1, “Method for screening compounds for the treatment of neoplasia” (Cell Pathways, Inc, priority 2000, dated 2003).

Experiments:
[1] = tested on: LNCaP cells; test: Histone-associated fragmented DNA (apoptosis) in prostate tumor cells; format: cell-based, human; settings: 50 μM Compound B (free base), up to 4 days
Experimental: The androgen-sensitive prostate tumor cell line, LNCaP (from ATCC (Rockville, Md.)) was propagated under standard conditions using […] medium containing 5% fetal calve serum and 2 mM glutamine. Primary prostate epithelial cell cultures (PrEC) derived from normal prostate (from Clonetics Inc. (San Diego, Calif.)) were grown under the same conditions as the tumor cell line except a serum-free medium optimized for the growth of such cultures was used (Clonetics Inc). For the experiments, LNCaP or PrEC cells were seeded in 96 well plates at a density of 10,000 cells per well. After 24 hours, the cells were treated with either vehicle (0.1% DMSO) or 50 μM Compound B (free base) solubilized in DMSO. After various drug treatment times ([…]) the cells were lysed and processed for measurement of histone-associated DNA as an indicator of apoptotic cell death (see, Piazza et al., Cancer Research 57: 2452-2459, 1997).

[2] = tested on: polyp and normal colonic tissues; test: Apoptosis rates in paired biopsies of APC patients; format: in vivo, human

| SMILES | histone-associated fragmented DNA [1] | apoptosis rates in polyp versus normal colonic tissues [2] |
| --- | --- | --- |
| CC1=C(CC(=O)NCc2ccccc2)c2cc(F)ccc2/C1=C\c1ccncc1.Cl [Compound B, (Z)-5-fluoro-2-methyl-(4-pyridylidene)-3-(N-benzyl)indenylacetamide hydrochloride] | significant increase in fragmented DNA was detected after 24 hours of treatment |  |
| CC1=C(CC(=O)O)c2cc(F)ccc2/C1=C\c1ccc(S(C)(=O)=O)cc1 [exisulind, 5-fluoro-2-methyl-1-(p-methylsulfonylbenzylidene)-3-indenylacetic acid] |  | increased apoptosis rates in polyp, but not normal colonic tissues |
